Measurements as given in PMC12022903, “Evaluation of drug-drug interaction between Suraxavir Marboxil (GP681) and itraconazole, and assessment of the impact of gene polymorphism” (Frontiers in Pharmacology, 2025).
Like-named read-outs stand apart in the source and are kept apart here.

Tests used:
[1] = tested on: OATP1B3; set-up: method as in unpublished data; settings: preclinical studies; ref unpublished data; cited from earlier work
[2] = tested on: carboxylesterase CES2; set-up: method as in unpublished data; settings: preclinical studies; ref unpublished data; cited from earlier work
[3] = format: in vivo
Experimental: This single-center, open-label, self-controlled, fixed-sequence study, sponsored by Qingfeng Pharmaceutical Group Co., Ltd., was conducted at a single clinical research site in the China–Japan Friendship Hospital (Beijing, China). Each subject received the following treatment: Suraxavir Marboxil (GP681) 20 mg in the fasted state on day 1 and day 26. Itraconazole capsules (Sporanox®: Xi’an Yangsen Pharmaceutical Co., Ltd., China) 0.2 g twice daily (BID, bis in die) on day 22. Itraconazole 0.2 g daily from day 23 to day 36 [including day 26, when itraconazole was co-administrated with Suraxavir Marboxil (GP681)]. The washout period is 21 days (Figure 2).
Safety was assessed through physical examination, vital sign measurements, clinical laboratory tests, 12-lead electrocardiograms, and assessment of self-reported symptoms. Adverse events were collected from the first dose through the end of the study. All safety data collected were assessed for severity and relationship to each study drug, Suraxavir Marboxil (GP681) or itraconazole. The severity of an adverse event was graded according to Common Terminology Criteria for Adverse Events (CTCAE) v5.0. For each adverse event occurred, investigators continued to follow up until it was resolved. Adverse event analysis is based on Safety Set (SS), coded with MedDRA version 26.0. Adverse events will be summarized by system organ class (SOC) and preferred term (PT) in terms of number of cases, occurrences, and incidence rate.

[4] = set-up: method as in unpublished data; settings: within 336 h after oral administration; ref unpublished data; cited from earlier work
[5] = tested on: OATP1B1; set-up: method as in unpublished data; settings: preclinical studies; ref unpublished data; cited from earlier work
[6] = tested on: MDR1; set-up: method as in unpublished data; settings: preclinical studies; ref unpublished data; cited from earlier work
[7] = tested on: liver enzymes; set-up: method as in unpublished data; settings: preclinical studies; ref unpublished data; cited from earlier work
[8] = tested on: MDR1; set-up: method as in unpublished data; settings: preclinical studies; ref unpublished data; cited from earlier work; remark: listed apart in the source
[9] = tested on: OAT3; set-up: method as in unpublished data; settings: preclinical studies; ref unpublished data; cited from earlier work
[10] = tested on: BCRP; set-up: method as in unpublished data; settings: preclinical studies; ref unpublished data; cited from earlier work
[11] = set-up: method as in unpublished data; settings: preclinical studies; ref unpublished data; cited from earlier work
[12] = quantification limit 0.3 ng/mL
[13] = tested on: OAT1; set-up: method as in unpublished data; settings: preclinical studies; ref unpublished data; cited from earlier work
[14] = N = 12, treatment stage given by label

Compound: COC(=O)OCOc1c2n(ccc1=O)N([C@@H]1c3ccccc3SCc3c1ccc(F)c3F)[C@@H]1COC3(CC3)CN1C2=O [GP681, (((R)-12'-((S)-7,8-difluoro-6, 11-dihydro-2-benzothiophene-11-yl)-6′, 8′-dioxide-6′, 8′, 12′, 12a′-tetrahydro-1′H-, 4′H-spiro [cyclopropane-1, 3'-[1, 4]oxazine [3,4-c]pyridine and [2,1-f] [1,2, 4]triazine]-7′-yl)oxy) methyl carbonate]
- inhibition of transport activity of OATP1B3 [1]: nor do they inhibit the transport activity
- conversion of prodrug to active form [2]: converted to an active form GP1707D07 by carboxylesterase CES2
- TEAE Alanine aminotransferase increased: no. of TEAEs [3, 14]: 1
- TEAE Alanine aminotransferase increased: no. of subjects (percent of subjects) [3, 14]: 1 (8.3)
- TEAE Basophil count increased: no. of subjects (percent of subjects) [3, 14]: 0
- TEAE Gamma-glutamyltransferase increased: no. of TEAEs [3, 14]: 1
- TEAE Gamma-glutamyltransferase increased: no. of subjects (percent of subjects) [3, 14]: 1 (8.3)
- TEAE Hemoglobin decreased: no. of TEAEs [3, 14]: 1
- TEAE Hemoglobin decreased: no. of subjects (percent of subjects) [3, 14]: 1 (8.3)
- TEAE Hepatobiliary disorders: no. of subjects (percent of subjects) [3, 14]: 0
- TEAE Hyperbilirubinemia: no. of subjects (percent of subjects) [3, 14]: 0
- TEAE Hypertriglyceridemia: no. of TEAEs [3, 14]: 1
- TEAE Hypertriglyceridemia: no. of subjects (percent of subjects) [3, 14]: 1 (8.3)
- TEAE Hyperuricemia: no. of TEAEs [3, 14]: 1
- TEAE Hyperuricemia: no. of subjects (percent of subjects) [3, 14]: 1 (8.3)
- TEAE Hypophosphatemia: no. of subjects (percent of subjects) [3, 14]: 0
- TEAE Investigations: no. of TEAEs [3, 14]: 7
- TEAE Investigations: no. of subjects (percent of subjects) [3, 14]: 4 (33.3)
- TEAE Lymphocyte count decreased: no. of TEAEs [3, 14]: 1
- TEAE Lymphocyte count decreased: no. of subjects (percent of subjects) [3, 14]: 1 (8.3)
- TEAE Metabolism and nutrition disorders: no. of TEAEs [3, 14]: 2
- TEAE Metabolism and nutrition disorders: no. of subjects (percent of subjects) [3, 14]: 2 (16.7)
- TEAE Occult blood in urine: no. of TEAEs [3, 14]: 1
- TEAE Occult blood in urine: no. of subjects (percent of subjects) [3, 14]: 1 (8.3)
- TEAE Overall total: no. of TEAEs [3, 14]: 9
- TEAE Overall total: no. of subjects (percent of subjects) [3, 14]: 5 (41.7)
- TEAE Red blood cell increased: no. of TEAEs [3, 14]: 1
- TEAE Red blood cell increased: no. of subjects (percent of subjects) [3, 14]: 1 (8.3)
- TEAE Total bile acid increased: no. of TEAEs [3, 14]: 1
- TEAE Total bile acid increased: no. of subjects (percent of subjects) [3, 14]: 1 (8.3)
- TEAE White blood cell increased: no. of subjects (percent of subjects) [3, 14]: 0
- TEAE related to GP681, Alanine aminotransferase increased: no. of TEAEs [3, 14]: 1[1]
- TEAE related to GP681, Alanine aminotransferase increased: no. of subjects [3, 14]: 1[1]
- TEAE related to GP681, Gamma-glutamyltransferase increased: no. of TEAEs [3, 14]: 1[1]
- TEAE related to GP681, Gamma-glutamyltransferase increased: no. of subjects [3, 14]: 1[1]
- TEAE related to GP681, Hemoglobin decreased: no. of TEAEs [3, 14]: 1[1]
- TEAE related to GP681, Hemoglobin decreased: no. of subjects [3, 14]: 1[1]
- TEAE related to GP681, Hypertriglyceridemia: no. of TEAEs [3, 14]: 1[1]
- TEAE related to GP681, Hypertriglyceridemia: no. of subjects [3, 14]: 1[1]
- TEAE related to GP681, Hypophosphatemia: no. of TEAEs [3, 14]: 1[1]
- TEAE related to GP681, Hypophosphatemia: no. of subjects [3, 14]: 1[1]
- TEAE related to GP681, Investigations: no. of TEAEs [3, 14]: 7
- TEAE related to GP681, Investigations: no. of subjects [3, 14]: 3
- TEAE related to GP681, Lymphocyte count decreased: no. of TEAEs [3, 14]: 1[1]
- TEAE related to GP681, Lymphocyte count decreased: no. of subjects [3, 14]: 1[1]
- TEAE related to GP681, Metabolism and nutrition disorders: no. of TEAEs [3, 14]: 2[2]
- TEAE related to GP681, Metabolism and nutrition disorders: no. of subjects [3, 14]: 2[2]
- TEAE related to GP681, Occult blood in urine: no. of TEAEs [3, 14]: 1[1]
- TEAE related to GP681, Occult blood in urine: no. of subjects [3, 14]: 1[1]
- TEAE related to GP681, Overall total: no. of TEAEs [3, 14]: 9
- TEAE related to GP681, Overall total: no. of subjects [3, 14]: 4
- TEAE related to GP681, Red blood cell increased: no. of TEAEs [3, 14]: 1[1]
- TEAE related to GP681, Red blood cell increased: no. of subjects [3, 14]: 1[1]
- TEAE related to GP681, Total bile acid increased: no. of TEAEs [3, 14]: 1[1]
- TEAE related to GP681, Total bile acid increased: no. of subjects [3, 14]: 1[1]
- TEAE Overall total: no. of subjects (percent of subjects) ([3]; N = 12, treatment stage given by label, listed as Suraxavir Marboxil (GP681)): 5
- TEAE related to GP681, Overall total: no. of TEAEs ([3]; Total over the study, N = 12): 11
- TEAE related to GP681, Overall total: no. of subjects ([3]; Total over the study, N = 12): 5
- serious adverse events ([3]; whole study, 12 subjects): No serious adverse events
- radioactivity recovery in feces [4]: 84.1%
- radioactivity recovery in urine [4]: 6.0%
- total radioactivity recovery rate [4]: 90.1%
- inhibition of transport activity of OATP1B1 [5]: nor do they inhibit the transport activity
- inhibition of transport activity of MDR1 [6]: nor do they inhibit the transport activity
- inhibition or induction of liver enzymes [7]: do not significantly inhibit or induce liver enzymes
- substrate for the MDR1 transporter [8]: Neither Suraxavir Marboxil (GP681) nor its metabolite, GP1707D07, serves as substrates
- inhibition of transport activity of OAT3 [9]: nor do they inhibit the transport activity
- substrate for the BCRP transporter [10]: Neither Suraxavir Marboxil (GP681) nor its metabolite, GP1707D07, serves as substrates
- detection of prodrug in plasma following oral administration [11]: scarcely detected in plasma
- route of excretion [11]: mainly excreted in feces
- plasma concentrations of GP681 in all the rest of blood samples [12]: below the quantification limit
- inhibition of transport activity of OAT1 [13]: nor do they inhibit the transport activity

Compound: CCC(C)n1ncn(-c2ccc(N3CCN(c4ccc(OCC5COC(Cn6cncn6)(c6ccc(Cl)cc6Cl)O5)cc4)CC3)cc2)c1=O (stereo not shown) [Itraconazole]
- TEAE Alanine aminotransferase increased: no. of TEAEs [3, 14]: 1
- TEAE Alanine aminotransferase increased: no. of subjects (percent of subjects) [3, 14]: 1 (8.3)
- TEAE Basophil count increased: no. of subjects (percent of subjects) [3, 14]: 0
- TEAE Gamma-glutamyltransferase increased: no. of subjects (percent of subjects) [3, 14]: 0
- TEAE Hemoglobin decreased: no. of subjects (percent of subjects) [3, 14]: 0
- TEAE Hepatobiliary disorders: no. of subjects (percent of subjects) [3, 14]: 1 (8.3)
- TEAE Hyperbilirubinemia: no. of subjects (percent of subjects) [3, 14]: 1 (8.3)
- TEAE Hypertriglyceridemia: no. of subjects (percent of subjects) [3, 14]: 1 (8.3)
- TEAE Hyperuricemia: no. of subjects (percent of subjects) [3, 14]: 0
- TEAE Hypophosphatemia: no. of subjects (percent of subjects) [3, 14]: 0
- TEAE Investigations: no. of TEAEs [3, 14]: 2
- TEAE Investigations: no. of subjects (percent of subjects) [3, 14]: 2 (16.7)
- TEAE Lymphocyte count decreased: no. of subjects (percent of subjects) [3, 14]: 0
- TEAE Metabolism and nutrition disorders: no. of subjects (percent of subjects) [3, 14]: 1 (8.3)
- TEAE Occult blood in urine: no. of TEAEs [3, 14]: 1
- TEAE Occult blood in urine: no. of subjects (percent of subjects) [3, 14]: 1 (8.3)
- TEAE Overall total: no. of TEAEs [3, 14]: 4
- TEAE Overall total: no. of subjects (percent of subjects) [3, 14]: 4 (33.3)
- TEAE Red blood cell increased: no. of subjects (percent of subjects) [3, 14]: 0
- TEAE Total bile acid increased: no. of subjects (percent of subjects) [3, 14]: 0
- TEAE White blood cell increased: no. of subjects (percent of subjects) [3, 14]: 0
- TEAE Overall total: no. of subjects (percent of subjects) ([3]; N = 12, treatment stage given by label, listed as itraconazole): 4
